Paper PMC8010095, “Discovery of novel antituberculosis agents among 3-phenyl-5-(1-phenyl-1H-[1,2,3]triazol-4-yl)-[1,2,4]oxadiazole derivatives targeting aminoacyl-tRNA synthetases” (Scientific Reports, 2021)
Like-named read-outs stand apart in the source and are kept apart here.

Legend:
[1] = tested on: M. tuberculosis H37Rv; assay: microbe, parasite or virus in culture; type: cell-based; conditions: > 80% reduction in growth, screened at 20, 2 and 0.2 mg/L, 7H9 complete medium
[2] = tested on: Mycobacterium avium (ATCC 700,891 MAC 101); assay: microbe, parasite or virus in culture; type: cell-based; conditions: > 80% reduction in growth, screened at 20, 2 and 0.2 mg/L, 7H9 complete medium
[3] = tested on: Mycobacterium abscessus (ATCC 19,977); assay: microbe, parasite or virus in culture; type: cell-based; conditions: > 80% reduction in growth, screened at 20, 2 and 0.2 mg/L, 7H9 complete medium
[4] = target: T1, M. tuberculosis leucyl-tRNA synthetase (LeuRS) (Mycobacterium tuberculosis, UniProt P9WFV1); assay: biochemical; type: biochemical
T1 construct: made in house; host or cells: Escherichia coli

[5] = target: T2, M. tuberculosis methionyl-tRNA synthetase (MetRS) (Mycobacterium tuberculosis, UniProt P9WFU5); assay: biochemical; type: biochemical
T2 construct: made in house; host or cells: Escherichia coli

[6] = recombinant enzyme, mean ± spread (n in brackets), negative = activation

T2 sequence (P9WFU5 whole entry): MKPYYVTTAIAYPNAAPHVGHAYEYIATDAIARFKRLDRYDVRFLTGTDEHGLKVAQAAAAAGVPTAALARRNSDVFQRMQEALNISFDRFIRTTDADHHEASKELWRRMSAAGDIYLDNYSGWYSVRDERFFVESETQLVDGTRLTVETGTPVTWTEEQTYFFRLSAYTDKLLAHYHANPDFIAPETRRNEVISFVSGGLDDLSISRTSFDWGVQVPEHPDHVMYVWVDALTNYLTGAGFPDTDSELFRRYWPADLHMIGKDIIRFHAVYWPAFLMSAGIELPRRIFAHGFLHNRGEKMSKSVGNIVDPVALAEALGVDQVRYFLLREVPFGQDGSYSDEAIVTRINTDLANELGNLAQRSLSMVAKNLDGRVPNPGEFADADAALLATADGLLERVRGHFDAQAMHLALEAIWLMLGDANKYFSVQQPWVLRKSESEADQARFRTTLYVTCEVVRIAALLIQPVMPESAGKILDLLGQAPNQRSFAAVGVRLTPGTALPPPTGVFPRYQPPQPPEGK
T1 sequence (P9WFV1 whole entry): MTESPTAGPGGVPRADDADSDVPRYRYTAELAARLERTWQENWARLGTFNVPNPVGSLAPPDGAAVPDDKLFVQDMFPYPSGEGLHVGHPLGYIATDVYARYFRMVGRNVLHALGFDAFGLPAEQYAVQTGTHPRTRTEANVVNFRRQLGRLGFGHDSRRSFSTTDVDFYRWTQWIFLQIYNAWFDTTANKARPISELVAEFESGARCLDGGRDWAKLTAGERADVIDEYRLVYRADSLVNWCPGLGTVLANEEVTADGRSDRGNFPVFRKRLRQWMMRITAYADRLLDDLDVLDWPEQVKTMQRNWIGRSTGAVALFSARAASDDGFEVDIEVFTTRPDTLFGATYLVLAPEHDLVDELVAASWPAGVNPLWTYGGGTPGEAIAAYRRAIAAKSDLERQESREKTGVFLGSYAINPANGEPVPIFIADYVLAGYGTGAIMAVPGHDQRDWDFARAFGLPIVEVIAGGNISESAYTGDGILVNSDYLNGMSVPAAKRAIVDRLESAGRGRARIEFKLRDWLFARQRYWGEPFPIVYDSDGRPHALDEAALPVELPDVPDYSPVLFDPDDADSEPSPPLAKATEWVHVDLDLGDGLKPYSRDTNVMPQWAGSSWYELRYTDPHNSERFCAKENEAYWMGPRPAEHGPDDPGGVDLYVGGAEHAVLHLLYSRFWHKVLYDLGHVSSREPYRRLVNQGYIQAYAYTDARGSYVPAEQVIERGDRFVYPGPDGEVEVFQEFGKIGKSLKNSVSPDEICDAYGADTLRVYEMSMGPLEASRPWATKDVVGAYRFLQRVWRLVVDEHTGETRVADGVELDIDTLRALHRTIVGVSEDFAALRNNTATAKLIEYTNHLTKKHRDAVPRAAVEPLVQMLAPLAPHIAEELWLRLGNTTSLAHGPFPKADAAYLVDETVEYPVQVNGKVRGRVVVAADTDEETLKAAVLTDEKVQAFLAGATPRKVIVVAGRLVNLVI

Nc1c(-c2nc(-c3ccccc3)no2)nnn1-c1ccccc1F [Compound 1]
Growth inhibition cutoff, H37Rv [1]: > 20 mg/L | Growth inhibition cutoff, M. avium 700,891 (MAC 101) [2]: > 20 mg/L | Growth inhibition cutoff, M. abscessus 19,977 [3]: > 20 mg/L

Nc1c(-c2nc(-c3ccccc3)no2)nnn1-c1ccc(C(F)(F)F)c(Cl)c1 [Compound 2]
LeuRS inhibition activity, % [4]: 32 ± 19 (3) % | IC50 ([4]; mean ± s.d. (n = 3)): 76.5 ± 66 µM | MetRS inhibition activity, % [5]: 71 ± 29 (2) % | IC50 ([5]; mean ± s.d. (n = 3)): 115 ± 3 µM | MIC ([1]; Mycobacterium tuberculosis, H37RV, read-out: Growth inhibition cutoff, H37Rv): > 20 µg/mL | MIC ([2]; Mycobacterium avium, ATCC700, read-out: Growth inhibition cutoff, M. avium 700,891 (MAC 101)): > 20 µg/mL | MIC ([3]; Mycobacteroides abscessus, ATCC19, read-out: Growth inhibition cutoff, M. abscessus 19,977): > 20 µg/mL

Cc1c(-c2nc(-c3ccccc3F)no2)nnn1-c1ccc(F)c(Cl)c1 [Compound 4]
LeuRS inhibition activity, % [4, 6]: 11 ± 8 (3) % | Growth inhibition cutoff, H37Rv [1]: > 20 mg/L | Growth inhibition cutoff, M. avium 700,891 (MAC 101) [2]: > 20 mg/L | Growth inhibition cutoff, M. abscessus 19,977 [3]: > 20 mg/L

Cc1c(-c2nc(-c3ccccc3F)no2)nnn1-c1ccc(Br)cc1 [Compound 5]
LeuRS inhibition activity, % [4, 6]: 17 ± 10 (2) % | Growth inhibition cutoff, H37Rv [1]: > 20 mg/L | Growth inhibition cutoff, M. avium 700,891 (MAC 101) [2]: > 20 mg/L | Growth inhibition cutoff, M. abscessus 19,977 [3]: > 20 mg/L

Cc1c(-c2nc(-c3ccccc3F)no2)nnn1-c1cc(F)ccc1F [Compound 6]
Growth inhibition cutoff, H37Rv [1]: > 20 mg/L | Growth inhibition cutoff, M. avium 700,891 (MAC 101) [2]: > 20 mg/L | Growth inhibition cutoff, M. abscessus 19,977 [3]: > 20 mg/L

Cc1c(-c2nc(-c3ccccc3Cl)no2)nnn1-c1cccc(F)c1 [Compound 7]
LeuRS inhibition activity, % [4, 6]: 71 ± 5 (2) % | Growth inhibition cutoff, H37Rv [1]: > 20 mg/L | Growth inhibition cutoff, M. avium 700,891 (MAC 101) [2]: > 20 mg/L | Growth inhibition cutoff, M. abscessus 19,977 [3]: > 20 mg/L

Cc1ccccc1-c1noc(-c2nnn(-c3ccc(Br)cc3)c2C)n1 [Compound 8]
LeuRS inhibition activity, % [4, 6]: 18 ± 4 (2) % | Growth inhibition cutoff, H37Rv [1]: > 20 mg/L | Growth inhibition cutoff, M. avium 700,891 (MAC 101) [2]: > 20 mg/L | Growth inhibition cutoff, M. abscessus 19,977 [3]: > 20 mg/L

Nc1c(-c2nc(-c3ccc(F)cc3)no2)nnn1-c1ccccc1 [Compound 9]
LeuRS inhibition activity, % [4, 6]: 1 ± 8 (2) % | MetRS inhibition activity, % [5, 6]: 30 ± 2 (2) % | Growth inhibition cutoff, H37Rv [1]: > 20 mg/L | Growth inhibition cutoff, M. avium 700,891 (MAC 101) [2]: > 20 mg/L | Growth inhibition cutoff, M. abscessus 19,977 [3]: > 20 mg/L

Nc1c(-c2nc(-c3ccc(F)cc3)no2)nnn1-c1ccc(Cl)cc1 [Compound 10]
MetRS inhibition activity, % [5, 6]: 23 ± 25 (3) % | Growth inhibition cutoff, H37Rv [1]: > 20 mg/L | Growth inhibition cutoff, M. avium 700,891 (MAC 101) [2]: > 20 mg/L | Growth inhibition cutoff, M. abscessus 19,977 [3]: > 20 mg/L

Nc1c(-c2nc(-c3ccc(F)cc3)no2)nnn1-c1ccc(Br)cc1 [Compound 11]
Growth inhibition cutoff, H37Rv [1]: > 20 mg/L | Growth inhibition cutoff, M. avium 700,891 (MAC 101) [2]: > 20 mg/L | Growth inhibition cutoff, M. abscessus 19,977 [3]: > 20 mg/L

Nc1c(-c2nc(-c3ccc(F)cc3)no2)nnn1-c1cccc(F)c1 [Compound 15]
Growth inhibition cutoff, H37Rv [1]: > 20 mg/L | Growth inhibition cutoff, M. avium 700,891 (MAC 101) [2]: > 20 mg/L | Growth inhibition cutoff, M. abscessus 19,977 [3]: > 20 mg/L

Nc1c(-c2nc(-c3ccc(F)cc3)no2)nnn1-c1cccc(Cl)c1 [Compound 16]
MetRS inhibition activity, % [5, 6]: 47 ± 19 (2) % | Growth inhibition cutoff, H37Rv [1]: > 20 mg/L | Growth inhibition cutoff, M. avium 700,891 (MAC 101) [2]: > 20 mg/L | Growth inhibition cutoff, M. abscessus 19,977 [3]: > 20 mg/L

Nc1c(-c2nc(-c3ccc(F)cc3)no2)nnn1-c1cccc(C(F)(F)F)c1 [Compound 19]
MetRS inhibition activity, % [5, 6]: 53 ± 0.7 (2) % | Growth inhibition cutoff, H37Rv [1]: > 20 mg/L | Growth inhibition cutoff, M. avium 700,891 (MAC 101) [2]: > 20 mg/L | Growth inhibition cutoff, M. abscessus 19,977 [3]: > 20 mg/L

COc1ccc(-n2nnc(-c3nc(-c4ccc(F)cc4)no3)c2N)cc1OC [Compound 21]
Growth inhibition cutoff, H37Rv [1]: > 20 mg/L | Growth inhibition cutoff, M. avium 700,891 (MAC 101) [2]: > 20 mg/L | Growth inhibition cutoff, M. abscessus 19,977 [3]: > 20 mg/L

Nc1c(-c2nc(-c3ccc(F)cc3)no2)nnn1-c1ccc(F)cc1F [Compound 22]
MetRS inhibition activity, % [5, 6]: 59 ± 9 (2) % | Growth inhibition cutoff, H37Rv [1]: > 20 mg/L | Growth inhibition cutoff, M. avium 700,891 (MAC 101) [2]: > 20 mg/L | Growth inhibition cutoff, M. abscessus 19,977 [3]: > 20 mg/L

COc1ccccc1-n1nnc(-c2nc(-c3ccc(F)cc3)no2)c1N [Compound 26]
Growth inhibition cutoff, H37Rv [1]: > 20 mg/L | Growth inhibition cutoff, M. avium 700,891 (MAC 101) [2]: > 20 mg/L | Growth inhibition cutoff, M. abscessus 19,977 [3]: > 20 mg/L

COc1ccc(C)cc1-n1nnc(-c2nc(-c3ccc(F)cc3)no2)c1N [Compound 28]
MetRS inhibition activity, % [5, 6]: 37 ± 3 (2) % | Growth inhibition cutoff, H37Rv [1]: > 20 mg/L | Growth inhibition cutoff, M. avium 700,891 (MAC 101) [2]: > 20 mg/L | Growth inhibition cutoff, M. abscessus 19,977 [3]: > 20 mg/L

COc1ccc(OC)c(-n2nnc(-c3nc(-c4ccc(F)cc4)no3)c2N)c1 [Compound 29]
MetRS inhibition activity, % [5, 6]: 14 ± 14 (2) % | Growth inhibition cutoff, H37Rv [1]: > 20 mg/L | Growth inhibition cutoff, M. avium 700,891 (MAC 101) [2]: > 20 mg/L | Growth inhibition cutoff, M. abscessus 19,977 [3]: > 20 mg/L

CCOc1ccccc1-n1nnc(-c2nc(-c3ccc(F)cc3)no2)c1N [Compound 30]
MetRS inhibition activity, % [5, 6]: 19 ± 0.9 (2) % | Growth inhibition cutoff, H37Rv [1]: > 20 mg/L | Growth inhibition cutoff, M. avium 700,891 (MAC 101) [2]: > 20 mg/L | Growth inhibition cutoff, M. abscessus 19,977 [3]: > 20 mg/L

Nc1c(-c2nc(-c3ccc(Br)cc3)no2)nnn1-c1ccc(F)cc1 [Compound 32]
MetRS inhibition activity, % [5, 6]: 46 ± 32 (2) % | Growth inhibition cutoff, H37Rv [1]: > 20 mg/L | Growth inhibition cutoff, M. avium 700,891 (MAC 101) [2]: > 20 mg/L | Growth inhibition cutoff, M. abscessus 19,977 [3]: > 20 mg/L

Nc1c(-c2nc(-c3ccc(Br)cc3)no2)nnn1-c1cccc(F)c1 [Compound 33]
MetRS inhibition activity, % [5, 6]: 55 ± 4 (2) % | Growth inhibition cutoff, H37Rv [1]: > 20 mg/L | Growth inhibition cutoff, M. avium 700,891 (MAC 101) [2]: > 20 mg/L | Growth inhibition cutoff, M. abscessus 19,977 [3]: > 20 mg/L

COc1ccccc1-n1nnc(-c2nc(-c3ccc(Br)cc3)no2)c1N [Compound 35]
MetRS inhibition activity, % [5, 6]: 61 ± 47 (3) % | Growth inhibition cutoff, H37Rv [1]: > 20 mg/L | Growth inhibition cutoff, M. avium 700,891 (MAC 101) [2]: > 20 mg/L | Growth inhibition cutoff, M. abscessus 19,977 [3]: > 20 mg/L

CCOc1ccccc1-n1nnc(-c2nc(-c3ccc(Br)cc3)no2)c1N [Compound 36]
MetRS inhibition activity, % [5, 6]: 25 ± 5 (2) % | Growth inhibition cutoff, H37Rv [1]: > 20 mg/L | Growth inhibition cutoff, M. avium 700,891 (MAC 101) [2]: > 20 mg/L | Growth inhibition cutoff, M. abscessus 19,977 [3]: > 20 mg/L

COc1ccc(-c2noc(-c3nnn(-c4cc(Cl)ccc4OC)c3N)n2)cc1 [Compound 37]
Growth inhibition cutoff, H37Rv [1]: > 20 mg/L | Growth inhibition cutoff, M. avium 700,891 (MAC 101) [2]: > 20 mg/L | Growth inhibition cutoff, M. abscessus 19,977 [3]: > 20 mg/L

COc1ccc(-c2noc(-c3nnn(-c4ccc(Cl)cc4)c3C)n2)cc1OC [Compound 38]
MetRS inhibition activity, % [5, 6]: 25 ± 18 (2) % | Growth inhibition cutoff, H37Rv [1]: > 20 mg/L | Growth inhibition cutoff, M. avium 700,891 (MAC 101) [2]: > 20 mg/L | Growth inhibition cutoff, M. abscessus 19,977 [3]: > 20 mg/L

CCOc1ccc(-c2noc(-c3nnn(-c4ccccc4F)c3N)n2)cc1 [Compound 39]
MetRS inhibition activity, % [5, 6]: 35 ± 6 (2) % | Growth inhibition cutoff, H37Rv [1]: > 20 mg/L | Growth inhibition cutoff, M. avium 700,891 (MAC 101) [2]: > 20 mg/L | Growth inhibition cutoff, M. abscessus 19,977 [3]: > 20 mg/L

CCOc1ccc(-c2noc(-c3nnn(-c4ccc(F)c(Cl)c4)c3N)n2)cc1 [Compound 41]
MetRS inhibition activity, % [5, 6]: 59 ± 22 (2) % | Growth inhibition cutoff, H37Rv [1]: > 20 mg/L | Growth inhibition cutoff, M. avium 700,891 (MAC 101) [2]: > 20 mg/L | Growth inhibition cutoff, M. abscessus 19,977 [3]: > 20 mg/L
